Laboratory results taken from paper PMC5515982, “Hair analysis for the biomonitoring of pesticide exposure: comparison with blood and urine in a rat model” (Archives of Toxicology, 2016).
Values joined by “and” are separate entries in the source; they are usually repeats but may differ in a detail not shown here. Equal entries are not always repeated.

Columns and labels:
Format in all cases: in vivo, rat
[1] = Concentration of pesticides and metabolites in hair of rats after 90-day gavage exposure to a pesticide mixture; conditions: for Slope (linear fit), concentration in hair versus level of exposure: exposure expressed as mg/kg per day, concentration as pg/mg, detected values only
Method: (§1) Eight rats were randomly assigned to each of the experimental groups. A low-calorie water gel that contained the pesticides was administered via gavage to these rats three times per week for 90 days. The doses of the pesticides mixture used for exposure were 4, 10, 20, 40, 100, 200, and 400 µg/kg of body weight. The exposure range was set as follows: The lowest dose was the lowest level allowing the detection of pesticides in hair after a 90-day exposure, based on preliminary experiments not detailed here. Testing lower levels would not have been relevant because some compounds would not be detected anymore (analytical limitation). In addition, for some other compounds, no differences were detected in the current experiment between the lowest level of exposure and the background exposure of the controls. The highest dose was set according to toxicity of compounds, which corresponded to 1/20 of the lowest LD50 (carbofuran). The animals were weighed before each administration in order to adapt the amount of pesticide-containing mixture to the animals’ weight.
(§2) The animals were shaved before the experiment began to ensure that the hair collected at the end of the study accurately reflected the 90-day period of exposure. White and black hairs were collected separately, placed in aluminum foil, and stored at −20 °C until analysis. Blood was collected in EDTA tube from the tail vein, 3 h after oral administration on Day 90. Each sampling (500–750 µL) was immediately centrifuged at 5000×g for 3 min at room temperature, and plasma was separated and stored at −80 °C before analysis. For urine collection, the rats were placed in individual metabolic cages (Type 304 stainless steel, Techniplast, Zwaag, Netherlands) immediately after gavage for 24 h (from Day 88 to Day 89). The urine was collected in refrigerated tubes over a 24-h period and was weighed before storage at −20 °C.
(§3) Depending on the compounds, only parent pesticides, only metabolites, or both parent and metabolites were analyzed in the biological matrices. The chemicals were analyzed as previously described (Chata et al. [2016]; Hardy et al. [2015]). Despite the different nature of the biological matrices analyzed (liquid vs. solid), method protocols were developed to ensure similarity so they could be reliably compared to the information obtained from each matrix, thereby ensuring that differences were not likely attributable to analytical bias. […] Because analytical background noise was absent from the chromatograms because tandem mass spectrometry was used, the approaches based on background noise for determining the limit of detection (LOD) were not applicable. The LOD was therefore determined as the lowest concentration that was detected in the samples analyzed during this study. Selectivity was ensured by analyte retention time and by the quantification transition to confirmation transition ratio that had to be lower than the 20% difference from the ratio obtained with standard compounds. The LOD ranged from 0.02 pg/mg for β-endosulfan to 2.7 pg/mg for dichlorodiphenyltrichloroethane (p,p′-DDT) in hair, from 0.2 pg/mL for trifluralin to 13.6 ng/mL for 2-isopropoxyphenol (2-IPP) in urine, and from 2.4 pg/mL for β-endosulfan to 679 pg/mL for p,p′-DDT in plasma. Because the analysis of parent pesticides and metabolites was conducted on the same hair sample, the addition of parent organophosphate isotope-labeled analog standards was not possible because their degradation into non-labeled dialkyl phosphate (DAP) during the analytical procedure would have hindered the analysis of DAP due to exposure. In hair, only organophosphate metabolites (not parents) were therefore quantified, and only qualitative results were obtained for parents.
(§4) The association between the level of exposure and the analyte concentration in the matrix (i.e., hair, urine, and plasma) was assessed by the Pearson product-moment correlation coefficient (R Pearson). […]

[2] = Concentration of pesticides and metabolites in 24-h urine of rats after 90-day gavage exposure to a pesticide mixture; conditions: for Slope (linear fit), concentration in urine versus level of exposure: exposure expressed as mg/kg per day, concentration as ng/mL, detected values only; for Concentration range in urine (detection): ND = not detected, whatever the level of exposure
Method: as §1, §2, §3, §4

[3] = Concentration of pesticides and metabolites in plasma of rats after 90-day gavage exposure to a pesticide mixture; conditions: for Slope (linear fit), concentration in plasma versus level of exposure: exposure expressed as mg/kg per day, concentration as ng/mL, detected values only; for Concentration range in plasma (detection): ND = not detected, whatever the level of exposure
Method: as §1, §2, §3, §4

[4] = Influence of hair pigmentation: concentration in white hair versus pigmented hair; conditions: slope close to 1 = poor influence of pigmentation
Method: as §2
The influence of hair pigmentation on pesticide incorporation was assessed by comparing the concentration detected in white hair versus pigmented hair which were collected and analyzed separately from each animal. […] For the majority of the chemicals tested during the current study, pigmentation seemed to have a very limited effect on the concentration in hair, and only few compounds seemed to be pigmentation sensitive.

Compound | Slope (linear fit), concentration in hair versus level of exposure [1] | Slope (linear fit), concentration in urine versus level of exposure [2] | Slope (linear fit), concentration in plasma versus level of exposure [3] | Slope, concentration in white hair versus pigmented hair [4] | other results
Cl[C@H]1[C@H](Cl)[C@@H](Cl)[C@@H](Cl)[C@H](Cl)[C@H]1Cl [γ-HCH, γ-hexachlorocyclohexane] | 119.8 | 5 715 | 47.2 | 0.969 | Concentration in urine, single point out of scale ([2]; dosage of 200 µg/kg, one animal, not presented in Fig. 1): 9 ng/mL
CC(C)Oc1ccccc1O [2-IPP, 2-isopropoxyphenol] | 26.3 | 1.0 E + 06 | 10.4 | 0.692 | 
CCCC1COC(Cn2cncn2)(c2ccc(Cl)cc2Cl)O1 (centres unmarked) [Propiconazole] | 6.47 |  |  | 0.825 | Concentration range in urine (detection) [2]: not detected; Concentration range in plasma (detection) [3]: not detected
CC1(C)C(C=C(Cl)Cl)C1C(=O)OC(C#N)c1cccc(Oc2ccccc2)c1 (centres unmarked) [Cypermethrin] |  |  | 10.1 | 0.495 | Exposure level from which detected in hair [1]: 200 µg/kg; Exposure level from which detected in plasma [3]: 10 µg/kg
CC1(C)C(C=C(Cl)Cl)C1C(=O)O (centres unmarked) [Cl2CA, 3-(2,2-dichlorovinyl)-2,2-dimethylcyclopropane-1-carboxylic acid] | 49.20 | 1.0 E + 06 | 139 | 0.498 | 
CC1(C)C(C=C(Cl)C(F)(F)F)C1C(=O)O (centres unmarked) [ClCF3CA, 3-(2-chloro-3,3,3-trifluoro-1-propenyl)-2,2-dimethylcyclopropane carboxylic acid] | 5.22 | 1.6 E + 05 | 9.79 | 0.220 | 
Oc1c(Cl)c(Cl)c(Cl)c(Cl)c1Cl [Pentachlorophenol] | 169.0 | 82 841 | 2039 | 0.705 | 
Clc1ccc(C(c2ccc(Cl)cc2)C(Cl)Cl)cc1 [p,p′-DDD, p,p′-dichlorodiphenyldichloroethane] | 24.0 |  | 13.1 | 0.673 | Exposure level from which detected in hair [1]: 40 µg/kg per day; Concentration range in urine (detection) [2]: not detected; Exposure level from which detected in plasma [3]: 40 µg/kg
N#Cc1nn(-c2c(Cl)cc(C(F)(F)F)cc2Cl)c(N)c1[S+]([O-])C(F)(F)F (centres unmarked) [Fipronil] | 31.5 | 2 016 |  | 1.017 | Exposure level from which detected in urine [2]: 10 µg/kg
Clc1ccc(C(c2ccc(Cl)cc2)C(Cl)(Cl)Cl)cc1 [p,p′-DDT, dichlorodiphenyltrichloroethane] | 184.7 |  | 175 | 0.876 | Exposure level from which detected in hair [1]: 20 µg/kg per day; Exposure level from which detected in urine [2]: 200 µg/kg
CC(C)Oc1cc(-n2nc(C(C)(C)C)oc2=O)c(Cl)cc1Cl [Oxadiazon] | 11.45 |  | 38.5 | 0.860 | Concentration range in urine (detection) [2]: not detected
CCCN(CCC)c1c([N+](=O)[O-])cc(C(F)(F)F)cc1[N+](=O)[O-] [Trifluralin] | 1.107 | 4 | 1.57 | 0.688 | Slope (linear fit), concentration in hair versus level of exposure ([1]; listed as trifluralin): 1.11
Oc1nc(Cl)c(Cl)cc1Cl [TCPy, 3,5,6-trichloro-2-pyridinol] | 85.6 | 2.5 E + 06 | 109 | 0.435 | 
CC1(C)C(C=C(Cl)Cl)C1C(=O)OCc1cccc(Oc2ccccc2)c1 (centres unmarked) [Permethrin] |  |  | 1.04 |  | Exposure level from which detected in plasma [3]: 100 µg/kg
CC1(C)Cc2cccc(O)c2O1 [Carbofuran phenol] | 35.10 | 1.0 E + 06 | 1.73 | 1.109 | 
CCOP(=S)(OCC)Oc1cc(C)nc(C(C)C)n1 [Diazinon] |  |  |  |  | Concentration range in plasma (detection) [3]: not detected
CCOP(O)(=S)OCC [DETP, diethylthiophosphate] | 10.47 | 9.9 E + 05 | 3.26 | 0.608 | 
ClC(Cl)=C(c1ccc(Cl)cc1)c1ccc(Cl)cc1 [p,p′-DDE, p,p′-dichlorodiphenyldichloroethylene] | 273.5 |  | 289 | 1.287 | Exposure level from which detected in urine [2]: 200 µg/kg
CC1(C)C(/C=C(\Cl)C(F)(F)F)C1C(=O)OC(C#N)c1cccc(Oc2ccccc2)c1 (centres unmarked) [λ-Cyhalothrin] | 5.050 |  | 116 | 1.079 | Exposure level from which detected in hair [1]: 20 µg/kg; Concentration in plasma relative to cypermethrin ([3]; at equal level of exposure): approximately 10 times; Concentration in plasma relative to permethrin ([3]; at equal level of exposure): approximately 100 times; Exposure level from which detected in plasma [3]: 4 µg/kg
Cl[C@H]1[C@H](Cl)[C@@H](Cl)[C@H](Cl)[C@@H](Cl)[C@@H]1Cl [β-HCH, β-hexachlorocyclohexane] | 612 and 612.6 | 6 297 | 199 | 1.021 | 
ClC1=C(Cl)[C@]2(Cl)[C@@H]3[C@@H]4C[C@@H]([C@H]5O[C@@H]45)[C@@H]3[C@@]1(Cl)C2(Cl)Cl [Dieldrin] | 427.8 | 2 069 | 305 | 1.000 | 
O=C(Nc1ccc(F)cc1F)c1cccnc1Oc1cccc(C(F)(F)F)c1 [Diflufenican] | 35.94 | 99 | 15.2 | 0.937 | Exposure level from which detected in urine [2]: 20 µg/kg
